The test system of data set [1] is spontaneously hypertensive rats. The data set can be described thus: Effectiveness in spontaneously hypertensive rats: systolic blood pressure by tail cuff method. The class given is in vivo. Conditions: Rattus norvegicus, read-out: Change of systolic blood-pressures. As to the method:
Experiment 1-Effectiveness of the compounds of Examples in spontaneously hypertensive rats
Systolic blood pressures were recorded by a modification of the tail cuff method described by I.M. Claxton et al., Eur. J.Pharmacology 37, 179 (1976). An oscilloscope or W+W BP recorder, model 8002, was used to display pulses.
Prior to all measurements rats were placed in a heated environment (33.5±0.5° C.) before transfer to a restraining cage. Each determination of blood pressure was the mean of at least 6 readings.
Spontaneously hypertensive rats (aged 12-18 weeks) with systolic blood pressures >170 mm Hg were considered hypertensive.
In the following table the results with certain compounds of the invention, which have been carried out with the above-described method, are mentioned. The numbers of the compounds correspond with those of the Examples.

A short description of another data set: LD50 in mice. As to conditions: mouse, in vivo.
The subject of data set [2] is right ventricle of the heart. The data set can be described thus: Guinea Pigs Electrostimulation Test (arrhythmias by electrostimulation of the right ventricle of the heart). Format: in vivo. As to conditions: Cavia porcellus, 0.5 h, 30 minutes before stimulation, read-out: Percent increase in voltage required for arrhythmia; for change in vivo at 32 mg/kg: standard dose 32 mg/kg intraduodenal. The procedure: Experiment 2-Effectiveness of the compounds of Examples in the Guinea Pigs Electrostimulation Test
Arrhythmias are induced in guinea pigs by electrostimulation of the right ventricle of the heart. The animals are anaesthesized with urethane (1.2 g/kg i.p.) and artificially respirated before a needle electrode is inserted in the right ventricle of the heart. Substances are given intraduodinally 30 minutes before the stimulation at a standard dose of 32 mg/kg. In some cases a different dose was used as indicated.
The voltage needed for induction of extra systoles in control animals (n=6) is compared with that required for induction of arrhythmias in treated animals (n=6).
This method is based on the work of L. Szekeres and G. J. Papp, Naunyn-Schmiedebergs Arch. Exp. Path. Pharmak., 245, 70 (1963).
In the table the results of certain compounds of the invention are mentioned, which have been carried out according to the method described above.
The numbers of the compounds correspond with those of the Examples.

Where two headings read alike, the source gives them in different places.

As a reminder, the LD50 is the dose at which mortality reaches 50%. A higher LD50 goes with lower toxicity. As for `CCCN1CC[C@@H](CCC(=O)c2cc(C)nc3ccccc23)[C@@H](CC)C1` [Compound 26, N-propyl-2'-methyl-hydrocinchonicine], the change in vivo at 10 mg/kg in data set [1] (1 h) was 0%; in data set [1] (2 h), 3%; in data set [1] (4 h) it was -5%; in data set [1] (6 h), -7%. Further, in “LD50 in mice”, the LD50 came to 500 mg/kg. Moreover, the change in vivo at 32 mg/kg in data set [2] worked out at 24%.
With `CCCN1CC[C@@H](CCC(O)c2cc(C)nc3ccccc23)[C@@H](CC)C1` (some centres unmarked) [Compound 38, N-propyl-2'-methyl-hydrocinchonicinol-1], the change in vivo at 10 mg/kg in data set [1] (1 h) was 1%; in data set [1] (2 h), 0%; in data set [1] (4 h) it was -3%; in data set [1] (6 h) it was -4%; in data set [1] (24 h), 0%. The change in vivo at 16 mg/kg in data set [2] (at 16 mg/kg, intraduodenal) is 31%.
Consider `CC[C@H]1CN(CCCC(=O)c2ccc(F)cc2)CC[C@H]1CCC(O)c1cc(C)nc2ccccc12` (some centres unmarked) [Compound 39, N-[3-(4-fluorobenzoyl)propyl]-2'-methyl-hydrocinchonicinol-1], for which the change in vivo at 1 mg/kg in data set [1] (1 h) is -16%; in data set [1] (2 h) it was -24%; in data set [1] (4 h), -26%; in data set [1] (6 h), -23%; in data set [1] (24 h) it was -1%. Besides, the change in vivo at 32 mg/kg in data set [2] came to 5%.
Turning to `CCCc1cc(C(O)CC[C@@H]2CCN(CCC)C[C@@H]2CC)c2ccccc2n1` (some centres unmarked) [Compound 41, N-propyl-2'-propyl-hydrocinchonicinol-1], the change in vivo at 10 mg/kg in data set [1] (1 h) is -6%; in data set [1] (2 h), -11%; in data set [1] (4 h), -15%; in data set [1] (6 h), -17%; in data set [1] (24 h) it was 3%. In data set [2] (intraduodenal), the change in vivo at 8 mg/kg was 101%.
With `CCCN1CC[C@@H](CCCc2cc(C)nc3ccccc23)[C@@H](CC)C1` [Compound 43, 2'-Methyl-N-propyl-desoxo-hydrocinchonicine.bioxalate], the change in vivo at 100 mg/kg was -1% in data set [1] (1 h), -12% in data set [1] (2 h), -28% in data set [1] (4 h) and -15% in data set [1] (24 h). Also, the change in vivo at 32 mg/kg in data set [2] is 9%.
Regarding `CCCOc1cc(C(=O)CC[C@@H]2CCN(C)C[C@@H]2CC)c2ccccc2n1` [Compound 51, N-methyl-2'-propoxy-hydrocinchonicine.bioxalate], the change in vivo at 3 mg/kg in data set [1] (1 h) was -1%; in data set [1] (2 h), 0%; in data set [1] (4 h) it was -7%; in data set [1] (6 h), -13%; in data set [1] (24 h) it was -1%. Also, the change in vivo at 32 mg/kg in data set [2] is -5%.
Consider `CC[C@H]1CN(CCCC(=O)c2ccccc2)CC[C@H]1CC(O)Cc1cc(OC)nc2ccccc12` (some centres unmarked) [Compound 54, N-(3-benzoylpropyl)-2'-methoxy-hydrocinchonicinol-2], for which the change in vivo at 10 mg/kg in data set [1] (1 h) was -17%; in data set [1] (2 h), -1%; in data set [1] (4 h), -16%; in data set [1] (6 h), -16%; in data set [1] (24 h), 7%. For the same molecule, in data set [2], the change in vivo at 32 mg/kg was 16%.
In the case of `CCCCCN1CC[C@@H](CC(O)Cc2cc(C(F)(F)F)nc3ccccc23)[C@@H](CC)C1` (some centres unmarked) [Compound 61], the change in vivo at 10 mg/kg was -8% in data set [1] (1 h); -10% in data set [1] (2 h); -13% in data set [1] (4 h); -12% in data set [1] (6 h); -7% in data set [1] (24 h). In addition, the change in vivo at 8 mg/kg in data set [2] (intraduodenal) came to 11%.
As to `CCCN1CC[C@@H](CC(=O)Cc2cc(OC)nc3ccccc23)[C@@H](CC)C1` [Compound 63, 1-(2-Methoxy-4-quinolyl)-3-[3(R)-ethyl-N-propyl-4(S)-piperidyl]-propanone-2.bioxalate], the change in vivo at 10 mg/kg in data set [1] (1 h) was -1%; in data set [1] (2 h), 1%; in data set [1] (4 h), -4%; in data set [1] (6 h), -3%; in data set [1] (24 h), -6%. In data set [2] (at 4 mg/kg, intraduodenal), the change in vivo at 4 mg/kg came to 12%.

The values are drawn from US4442106A, “Quinoline derivatives, pharmaceutical compositions containing such compounds, and methods of treating cardiovascular conditions with them” (ACF Chemiefarma N.V., priority 1980, dated 1984).
